Consider 17 compounds from ChEMBL document CHEMBL1221248, “Synthesis and SAR of (piperazin-1-yl-phenyl)-arylsulfonamides: a novel series of atypical antipsychotic agents” (Bioorg Med Chem Lett, 2010).

The target of test [1] is T1, 5-hydroxytryptamine receptor 2C (Homo sapiens, UniProt P28335).
T1 sequence (P28335 whole entry): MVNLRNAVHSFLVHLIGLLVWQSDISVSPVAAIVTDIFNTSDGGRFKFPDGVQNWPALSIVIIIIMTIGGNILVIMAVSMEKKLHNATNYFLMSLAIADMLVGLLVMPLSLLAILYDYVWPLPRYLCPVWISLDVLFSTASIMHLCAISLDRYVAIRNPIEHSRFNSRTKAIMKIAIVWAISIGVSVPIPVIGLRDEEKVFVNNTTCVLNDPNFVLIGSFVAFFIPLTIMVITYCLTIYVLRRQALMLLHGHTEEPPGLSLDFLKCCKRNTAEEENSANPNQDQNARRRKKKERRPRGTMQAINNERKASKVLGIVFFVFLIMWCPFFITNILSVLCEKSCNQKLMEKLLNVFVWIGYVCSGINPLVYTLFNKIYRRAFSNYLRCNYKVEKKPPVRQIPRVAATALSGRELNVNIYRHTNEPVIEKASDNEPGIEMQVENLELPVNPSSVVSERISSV
Briefly: Displacement of [3H]mesulergine from human 5HT2C expressed in CHOKI cells. The test is classed as cell-based.

Test [2] deals with 5-hydroxytryptamine receptor 6 (Homo sapiens, UniProt P50406). Briefly: Displacement of [3H]LSD from human 5HT6 receptor expressed in HEK293 cells. It counts as cell-based. In general terms: Displacement assays read how much labelled ligand stays bound in the presence of the test substance.

The structures appear in SMILES notation. pIC50: −log10 of the molar value. Where only a bound is given, the exact number is not on record here.

Sequence of 5-hydroxytryptamine receptor 6 (P50406 whole entry): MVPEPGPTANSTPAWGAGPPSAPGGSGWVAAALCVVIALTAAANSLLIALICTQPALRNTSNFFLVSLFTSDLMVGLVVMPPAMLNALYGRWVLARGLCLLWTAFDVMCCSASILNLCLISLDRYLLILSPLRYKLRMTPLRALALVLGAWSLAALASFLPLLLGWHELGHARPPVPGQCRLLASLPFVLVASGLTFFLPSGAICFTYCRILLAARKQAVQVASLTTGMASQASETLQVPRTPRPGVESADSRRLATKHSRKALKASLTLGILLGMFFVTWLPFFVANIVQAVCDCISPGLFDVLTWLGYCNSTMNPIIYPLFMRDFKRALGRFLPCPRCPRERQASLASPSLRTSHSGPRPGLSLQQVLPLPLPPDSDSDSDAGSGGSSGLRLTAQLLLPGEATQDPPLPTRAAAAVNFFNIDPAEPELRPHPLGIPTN

Turning to `CC(C)N(C(=O)c1cccc2ccccc12)c1cccc(N2CCN(C)CC2)c1`, the pIC50 (usually the negative decadic logarithm of the IC50, by convention in mol/L) in test [1] was 7.01.

Compound `CCC(CC)N(c1cccc(N2CCN(C)CC2)c1)S(=O)(=O)c1ccc2ccccc2c1` gave a pIC50 in test [1] of 6.80.

In test [1], `CC(C)N(C(=O)Nc1ccccc1)c1cccc(N2CCN(C)CC2)c1` had a pIC50 of less than 5.00.

For the compound `CC(C)N(c1ccc(Oc2cccnc2)nc1)S(=O)(=O)c1ccc2ccccc2c1`, the pIC50 in test [1] is less than 5.00; in test [2], 6.37.

As to `CC(C)N(C(=O)c1ccc(Cl)cc1)c1cccc(N2CCN(C)CC2)c1`, the pIC50 in test [1] was 5.11.

On to `CCC(C)N(c1cccc(N2CCN(C)CC2)c1)S(=O)(=O)c1ccc2ccccc2c1` (stereo unspecified), for which the pIC50 in test [1] is 6.77. This pIC50 is 1.66 log units higher than that of the compound before.

For the compound `CC(C)N(c1ccc(N2CCN(C)CC2)cc1)S(=O)(=O)c1ccc2ccccc2c1`, the pIC50 was 5.77 in test [1] and 7.57 in test [2].

In turn, `CC(C)N(C(=O)c1ccccc1)c1cccc(N2CCN(C)CC2)c1` had a pIC50 in test [1] of 5.38.

`CC(C)N(c1cccc(N2CCN(C)CC2)c1)S(=O)(=O)c1ccc([N+](=O)[O-])cc1`: in test [1], the pIC50 is 6.34.

Consider `CN1CCN(c2cccc(N(Cc3cccnc3)S(=O)(=O)c3ccc4ccccc4c3)c2)CC1`, for which, in test [1], the pIC50 is 7.47.

Consider `CC(C)N(c1ccccc1N1CCN(C)CC1)S(=O)(=O)c1ccc2ccccc2c1`, for which the values for the pIC50 in test [1] and in test [2] were 5.33 and 5.66, respectively.

In test [1], `CN1CCN(c2cccc(N(CC3CCCC3)S(=O)(=O)c3ccc4ccccc4c3)c2)CC1` gave a pIC50 of 7.96.

Compound `CC(C)N(c1cccc(N2CCN(C)CC2)c1)S(=O)(=O)c1ccc(Cl)cc1` gave a pIC50 in test [1] of 6.61.

Consider `CC(C)N(c1cccc(I)c1)S(=O)(=O)c1ccc2ccccc2c1`, for which the pIC50 in test [1] is 6.33; in test [2], 5.93.

In turn, `CC(C)N(Cc1ccccc1)c1cccc(N2CCN(C)CC2)c1` gave a pIC50 in test [1] of less than 5.00.

In test [1], `Cc1ccc(S(=O)(=O)N(c2cccc(N3CCN(C)CC3)c2)C(C)C)cc1` gave a pIC50 of 6.97.

Take `CC(C)N(C(=O)c1ccc2ccccc2c1)c1cccc(N2CCN(C)CC2)c1`: the pIC50 in test [1] was 6.38.
